Drawing on patent US12195482B1 (Arcus Biosciences, Inc., priority 2022, dated 2025), this text covers IC50 for 16 molecules.

For assay [1], the target named is T1, Axl (Homo sapiens, UniProt P30530).
T1 sequence (P30530 26-894): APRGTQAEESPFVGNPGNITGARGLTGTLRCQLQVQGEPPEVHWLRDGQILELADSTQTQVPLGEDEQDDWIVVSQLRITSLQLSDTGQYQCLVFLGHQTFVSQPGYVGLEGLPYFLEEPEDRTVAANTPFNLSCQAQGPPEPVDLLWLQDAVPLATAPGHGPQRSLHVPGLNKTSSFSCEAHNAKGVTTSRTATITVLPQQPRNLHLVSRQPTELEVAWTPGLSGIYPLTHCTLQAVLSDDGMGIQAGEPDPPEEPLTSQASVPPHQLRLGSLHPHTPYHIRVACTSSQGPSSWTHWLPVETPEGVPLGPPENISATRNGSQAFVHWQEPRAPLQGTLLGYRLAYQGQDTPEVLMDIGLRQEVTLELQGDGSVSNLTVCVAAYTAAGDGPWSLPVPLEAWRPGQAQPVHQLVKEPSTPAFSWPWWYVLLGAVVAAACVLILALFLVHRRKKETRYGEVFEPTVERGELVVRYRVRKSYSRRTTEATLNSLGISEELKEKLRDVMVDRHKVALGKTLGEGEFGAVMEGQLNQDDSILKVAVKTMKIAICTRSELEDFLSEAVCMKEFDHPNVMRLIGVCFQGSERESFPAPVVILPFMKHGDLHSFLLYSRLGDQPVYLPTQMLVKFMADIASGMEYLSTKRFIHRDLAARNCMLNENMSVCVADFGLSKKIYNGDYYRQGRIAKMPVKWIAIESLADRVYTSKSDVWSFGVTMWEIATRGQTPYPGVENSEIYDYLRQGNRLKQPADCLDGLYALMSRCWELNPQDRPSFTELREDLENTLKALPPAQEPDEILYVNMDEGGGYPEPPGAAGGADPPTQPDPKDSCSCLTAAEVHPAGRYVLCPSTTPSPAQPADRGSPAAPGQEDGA
Description: Biochemical potency, HTRF KinEASE-TK kinase assay. Further details: purchased Invitrogen. As to conditions: 5 nM AXL, 700 μM ATP. The method, boiled down: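 HTRF 665/620 readout after a 2 h RT kinase reaction (final 700 μM ATP, 800 nM biotinylated TK substrate, 1% DMSO, HEPES pH 7.4 buffer) gave percent activity. Final enzyme was 5 nM for AXL, 1 nM for TYRO3 or MER, each preincubated 1 h with compound.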

The target of assay [2] is T1, Axl. Description: Axl NanoBRET intracellular kinase assay (intracellular binding, K-5 tracer displacement). Further details: host or cells: HEK-293. As to conditions: HEK-293 cells transfected with Axl-NanoLuc, 0.35 μM K-5 NanoBRET tracer; read-out: Cell Binding AXL. The protocol: Measuring Intracellular Binding of Axl Inhibitors
Axl NanoBRET™ intracellular kinase assay (Promega, N2540) was performed according to manufacturer's recommendation. In brief, HEK-293 cells are transiently transfected with Ax1-NanoLuc fusion vector (Promega, NV1071), utilizing Fugene HD transfection reagent (Promega, E2311) a day before experiment following manufacturer's recommendation.
The day of the assay, the cells were collected and resuspended in Opti-MEM media (ThermoFisher, 31985070) at 2e5 cells/mL concentration. Testing compounds were serial diluted and dispensed into a white 384 well polystyrene plate at 200 nL in 100% DMSO. 40 μL of resuspended cells is then added per well for a final condition of 8K cells/well with 0.5% DMSO. After one-hour compound pre-incubation at 37° C. and 5% CO2, cells were further incubated with 0.35 μM K-5 NanoBRET tracer for two-hours at 37° C. and 5% CO2. […] of 3× substrate plus Inhibitor solution was prepared according to kits manual and added to the cells followed by a 30 second pulse centrifugation spin. The plate was then immediately read utilizing an Envision (Perkin Elmer) plate reader. The BRET signal is measured by taking the ratio of the emissions reading at 610 nm and 450 nm. Compound binding is based on the decrease BRET signal caused by the displacement of the K-5 tracer. […] ICso value of compounds was determined by 4-parameter non-linear regression fitting of percent activity in GraphPad Prism software.

Take `Cn1nccc1-c1ccc(-c2n[nH]c3ncc(-c4ccc5c(c4)CC[C@@H](N4C6COCC4C6)CC5)cc23)cc1` [Example 109, 6-[(7S)-2-{3-[4-(1-Methyl-1H-pyrazol-5-yl)phenyl]-1H-pyrazolo[3,4-b]pyridin-5-yl}-6,7,8,9-tetrahydro-5H-benzo[7]annulen-7-yl]-3-oxa-6-azabicyclo[3.1.1]heptane]: the IC50 against Axl [1] and at Axl [2] was under 100 nM each time.

For `Cn1ncnc1-c1ccc(-c2n[nH]c3ncc(-c4ccc5c(c4)CC[C@@H](N4C6COCC4C6)CC5)cc23)cc1` [Example 110, 6-[(7S)-2-{3-[4-(1-Methyl-1H-1,2,4-triazol-5-yl)phenyl]-2H-pyrazolo[3,4-b]pyridin-5-yl}-6,7,8,9-tetrahydro-5H-benzo[7]annulen-7-yl]-3-oxa-6-azabicyclo[3.1.1]heptane], the IC50 on Axl [1] and on Axl [2] was under 100 nM each time.

As for `Cn1ccnc1-c1ccc(-c2n[nH]c3ncc(-c4ccc5c(c4)CC[C@@H](N4C6COCC4C6)CC5)cc23)cc1` [Example 111, 6-[(7S)-2-{3-[4-(1-Methyl-1H-imidazol-2-yl)phenyl]-1H-pyrazolo[3,4-b]pyridin-5-yl}-6,7,8,9-tetrahydro-5H-benzo[7]annulen-7-yl]-3-oxa-6-azabicyclo[3.1.1]heptane], the IC50 against Axl [1] and on Axl [2] was under 100 nM throughout.

For `C[C@@H]1CCCN1[C@@]1(C)CCc2ccc(-c3cnc4[nH]nc(-c5ccc(-c6ncnn6C)cc5)c4c3)cc2CC1` [Example 112, 1-Methyl-5-(4-{5-[(7S)-7-methyl-7-[(2R)-2-methylpyrrolidin-1-yl]-6,7,8,9-tetrahydro-5H-benzo[7]annulen-2-yl]-1H-pyrazolo[3,4-b]pyridin-3-yl}phenyl)-1H-1,2,4-triazole], the IC50 at Axl [1] and on Axl [2] was under 100 nM throughout.

Regarding `c1ccc(-c2ccc(-c3n[nH]c4ncc(-c5ccc6c(c5)CC[C@@H](N5C7COCC5C7)CC6)cc34)cc2)nc1` [Example 154, 6-[(7S)-2-{3-[4-(Pyridin-2-yl)phenyl]-2H-pyrazolo[3,4-b]pyridin-5-yl}-6,7,8,9-tetrahydro-5H-benzo[7]annulen-7-yl]-3-oxa-6-azabicyclo[3.1.1]heptane], the IC50 at Axl [1] and at Axl [2] was under 100 nM each time.

Take `c1ccc(-c2ccc(-c3c[nH]c4ncc(-c5ccc6c(c5)CC[C@@H](N5C7COCC5C7)CC6)cc34)cc2)nc1` [Example 155, 6-[(7S)-2-{3-[4-(Pyridin-2-yl)phenyl]-1H-pyrrolo[2,3-b]pyridin-5-yl}-6,7,8,9-tetrahydro-5H-benzo[7]annulen-7-yl]-3-oxa-6-azabicyclo[3.1.1]heptane]: the IC50 against Axl [1] and at Axl [2] was under 100 nM in each case.

`C[C@@H]1CCCN1[C@@]1(C)CCc2ccc(-c3cnc4[nH]cc(-c5ccc(-c6ccccn6)cc5)c4c3)cc2CC1` [Example 156, 2-(4-{5-[(7S)-7-Methyl-7-[(2R)-2-methylpyrrolidin-1-yl]-6,7,8,9-tetrahydro-5H-benzo[7]annulen-2-yl]-1H-pyrrolo[2,3-b]pyridin-3-yl}phenyl)pyridine]: the IC50 at Axl [1] and at Axl [2] was under 100 nM each time.

`c1cncc(-c2ccc(-c3c[nH]c4ncc(-c5ccc6c(c5)CC[C@@H](N5C7COCC5C7)CC6)cc34)cc2)c1` [Example 158, 6-[(7S)-2-{3-[4-(Pyridin-3-yl)phenyl]-1H-pyrrolo[2,3-b]pyridin-5-yl}-6,7,8,9-tetrahydro-5H-benzo[7]annulen-7-yl]-3-oxa-6-azabicyclo[3.1.1]heptane]: the IC50 against Axl [1] was under 100 nM; on Axl [2], 100 to 1000 nM.

As for `Cc1cc(-c2n[nH]c3ncc(-c4ccc5c(c4)CC[C@@H](N4C6COCC4C6)CC5)cc23)ccc1-c1ccccn1` [Example 159, 6-[(7S)-2-{3-[3-Methyl-4-(pyridin-2-yl)phenyl]-2H-pyrazolo[3,4-b]pyridin-5-yl}-6,7,8,9-tetrahydro-5H-benzo[7]annulen-7-yl]-3-oxa-6-azabicyclo[3.1.1]heptane], the IC50 is under 100 nM on Axl [1] and 100 to 1000 nM at Axl [2].

As to `Cc1cccnc1-c1ccc(-c2n[nH]c3ncc(-c4ccc5c(c4)CC[C@@](C)(N4CCC[C@H]4C)CC5)cc23)cc1` [Example 163, 3-Methyl-2-(4-{5-[(7S)-7-methyl-7-[(2R)-2-methylpyrrolidin-1-yl]-6,7,8,9-tetrahydro-5H-benzo[7]annulen-2-yl]-2H-pyrazolo[3,4-b]pyridin-3-yl}phenyl)pyridine], the IC50 against Axl [1] and at Axl [2] was under 100 nM each time.

Regarding `COc1cccnc1-c1ccc(-c2c[nH]c3ncc(-c4ccc5c(c4)CC[C@@H](N4C6COCC4C6)CC5)cc23)cc1` [Example 164, 6-[(7S)-2-{3-[4-(3-Methoxypyridin-2-yl)phenyl]-1H-pyrrolo[2,3-b]pyridin-5-yl}-6,7,8,9-tetrahydro-5H-benzo[7]annulen-7-yl]-3-oxa-6-azabicyclo[3.1.1]heptane], the IC50 on Axl [1] and at Axl [2] was under 100 nM throughout.

For the molecule `CN(C)C(=O)c1cccnc1-c1ccc(-c2c[nH]c3ncc(-c4ccc5c(c4)CC[C@@H](N4C6COCC4C6)CC5)cc23)cc1` [Example 165, N,N-Dimethyl-2-(4-{5-[(7S)-7-{3-oxa-6-azabicyclo[3.1.1]heptan-6-yl}-6,7,8,9-tetrahydro-5H-benzo[7]annulen-2-yl]-1H-pyrrolo[2,3-b]pyridin-3-yl}phenyl)pyridine-3-carboxamide], the IC50 against Axl [1] and on Axl [2] was under 100 nM each time.

For `COc1cccnc1-c1ccc(-c2n[nH]c3ncc(-c4ccc5c(c4)CC[C@@H](N4C6COCC4C6)CC5)cc23)cc1` [Example 166, 6-[(7S)-2-{3-[4-(3-Methoxypyridin-2-yl)phenyl]-1H-pyrazolo[3,4-b]pyridin-5-yl}-6,7,8,9-tetrahydro-5H-benzo[7]annulen-7-yl]-3-oxa-6-azabicyclo[3.1.1]heptane], the IC50 at Axl [1] and at Axl [2] was under 100 nM each time.

Take `CN(C)C(=O)c1cccnc1-c1ccc(-c2n[nH]c3ncc(-c4ccc5c(c4)CC[C@@H](N4C6COCC4C6)CC5)cc23)cc1` [Example 167, N,N-Dimethyl-2-(4-{5-[(7S)-7-{3-oxa-6-azabicyclo[3.1.1]heptan-6-yl}-6,7,8,9-tetrahydro-5H-benzo[7]annulen-2-yl]-1H-pyrazolo[3,4-b]pyridin-3-yl}phenyl)pyridine-3-carboxamide]: the IC50 at Axl [1] and at Axl [2] was under 100 nM in each case.

Take `c1ccc(-n2cc(-c3n[nH]c4ncc(-c5ccc6c(c5)CC[C@@H](N5C7COCC5C7)CC6)cc34)cn2)nc1` [Example 168, 6-[(7S)-2-{3-[1-(Pyridin-2-yl)-1H-pyrazol-4-yl]-1H-pyrazolo[3,4-b]pyridin-5-yl}-6,7,8,9-tetrahydro-5H-benzo[7]annulen-7-yl]-3-oxa-6-azabicyclo[3.1.1]heptane]: the IC50 at Axl [1] and at Axl [2] was under 100 nM throughout.

On to `Cn1cnnc1-c1ccc(-c2n[nH]c3ncc(-c4ccc5c(c4)CC[C@@H](N4C6COCC4C6)CC5)cc23)cc1` [Example 169, 6-[(7S)-2-{3-[4-(4-Methyl-4H-1,2,4-triazol-3-yl)phenyl]-1H-pyrazolo[3,4-b]pyridin-5-yl}-6,7,8,9-tetrahydro-5H-benzo[7]annulen-7-yl]-3-oxa-6-azabicyclo[3.1.1]heptane], for which the IC50 against Axl [1] and at Axl [2] was under 100 nM each time.
